Here are results for 20 compounds from patent US20040122026A1, “Imidazolidine compounds” (Millennium Pharmaceuticals, Inc., priority 2002, published 2004).

In one test the target is T1, CXCR3 (Homo sapiens, UniProt P49682).
T1 construct: expressed in transfected cells; membrane preparation
T1 sequence (P49682 1-368): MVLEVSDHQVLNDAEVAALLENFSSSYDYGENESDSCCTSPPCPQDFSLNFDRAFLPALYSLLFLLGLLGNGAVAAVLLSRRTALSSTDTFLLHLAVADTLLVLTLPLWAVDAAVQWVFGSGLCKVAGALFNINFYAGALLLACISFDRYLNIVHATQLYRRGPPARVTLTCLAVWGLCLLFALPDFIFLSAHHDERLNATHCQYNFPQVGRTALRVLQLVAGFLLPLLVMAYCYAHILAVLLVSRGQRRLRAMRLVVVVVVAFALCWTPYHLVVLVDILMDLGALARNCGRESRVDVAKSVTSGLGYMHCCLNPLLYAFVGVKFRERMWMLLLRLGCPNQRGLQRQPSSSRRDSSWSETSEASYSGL
The experiment in a line: CXCR3/IP-10 radioligand binding (125I-IP-10 competition on CXCR3.L1/2 cell membranes). Conditions: test compound 10 μmol/L; 125I-labeled IP-10 binding to CXCR3.L1/2 transfectant cell membranes; results Table 5. The text has this: The activity of the compounds of the present invention can be assessed using a suitable assay, such as a receptor binding assay, a chemotaxis assay, an extracellular acidification assay or a calcium flux assay (see, for example, Hesselgesser et al., J. Biol. Chem., 273(25): 15687-15692 (1998) and WO 98/02151). For example, as described herein, small organic molecule antagonists of CXCR3/IP-10 binding have been identified utilizing cells engineered to express recombinant human CXCR3 (CXCR3.L1/2) and which bind ^125I-IP-10 and chemotax in response to IP-10, Mig, or I-TAC. Specifically, a high through-put receptor binding assay, which monitors ^125I-IP-10 biding to CXCR3.L1/2 cell membranes, was used to identify small molecule antagonists. Binding assays can be performed using other ligands of CXCR3, such as, Mig, and/or I-TAC.
CXCR3/IP-10 Radioligand Binding:
CXCR3.L1/2 Membrane Preparation:
CXCR3.L1/2 cells were pelleted by centrifugation and stored at −80° C. The cells were lysed by thawing and resuspending at about 1.5×10^7 cells/mL in a hypotonic buffer (5 mmol/L HEPES (pH 7.2), 2 mmol/L EDTA, 10 μg/mL each leupeptin, aprotinin, and chymostatin, and 100 μg/mL PMSF (all from Sigma, St. Louis)). Nuclei and cellular debris are removed by centrifugation ([…], at 4° C.) for 10 min. The supernatant was transferred to chilled centrifuge tubes (Nalge, Rochester, N.Y.) and the membrane fraction was recovered by centrifugation (25,000 g at 4° C.) for 45 min. The membrane pellet was resuspended in freezing buffer (10 mmol/L HEPES (pH 7.2), 300 mmol/L Sucrose, 5 μg/mL each of leupeptin, aprotinin, and chymostatin, and 10 μg/mL PMSF). The total protein concentration was determined using a coomassie blue staining protein concentration assay kit (BioRad). The membrane preparations are aliquoted and stored at −80° C. until time of use.
CXCR3/IP-10 binding was performed in 96-well polypropylene plates (Costar) in a final volume of 0.1 mL of HBB buffer (50 mmol/L Hepes pH 7.4, 1 mmol/L CaCl2, 5 mmol/L MgCl2, 0.02% sodium azide, 0.5% BSA (bovine serum albumin)), containing 1 to 5 μg CXCR3.L1/2 transfectant cell membrane protein and 0.05 to 0.2 nmol/L of ^125I-labeled IP-10 (NEN, Boston, Mass.). Competition binding experiments were performed by including variable concentrations of unlabeled IP-10 or test compound. Nonspecific binding was determined following the addition of a 250 nmol/L unlabelled IP-10. Samples were incubated for 60 min at room temperature, and bound and free tracer (^125I-labeled IP-10) were separated by filtration through 96-well GF/B filterplates presoaked in 0.3% polyethyleneimine. The filters were washed in HBB further supplemented with 0.5 mol/L NaCl, dried, and the amount of bound radioactivity determined by liquid scintillation counting. The competition is presented as the percent specific binding as calculated by 100×[(S−B)/(T−B)], where S is the radioactivity bound for each sample, B is background binding, and T is total bound in the absence of competitors. Duplicates were used throughout the experiments.
As a reminder, the inhibition is the relative decrease from the control value, in per cent. On to `Cc1cc(C)cc(CN2CCN(CCC(=O)N(Cc3ccccc3)c3cccc(CN4CCCCC4)c3)C2=C(C#N)C#N)c1` [Compound 5, N-Benzyl-N-[3-(piperidinomethyl)phenyl]-3-[3-(3,5-dimethylbenzyl)-2-dicyanomethylideneimidazolidin-1-yl]propionamide], for which the inhibition at 10 µM amounted to 95%.
The same measure, in the same setting: for `Cc1cc(C)cc(CN2CCN(CCC(=O)N(CC(=O)O)c3cccc(CN4CCCCC4)c3)C2=C(C#N)C#N)c1` [Compound 9, N-Carboxymethyl-N-[3-(piperidinomethyl)phenyl]-3-[3-(3,5-dimethylbenzyl)-2-dicyanomethylideneimidazolidin-1-yl]propionamide] the value was 83%.
Same read-out and setting: the same measure for `CCCN(C(=O)CCN1CCN(Cc2cc(C)cc(C)c2)C1=C(C#N)C#N)c1cccc(CN2CCCCC2)c1` [Compound 2, N-Propyl-N-[3-(piperidinomethyl)phenyl]-3-[3-(3,5-dimethylbenzyl)-2-dicyanomethylideneimidazolidin-1-yl]propionamide]: 99%; for `Cc1cc(C)cc(CN2CCN(CCC(=O)N(CC(N)=O)c3cccc(CN4CCCCC4)c3)C2=C(C#N)C#N)c1` [Compound 12, N-Aminocarbonylmethyl-N-[3-(piperidinomethyl)phenyl]-3-[3-(3,5-dimethylbenzyl)-2-dicyanomethylideneimidazolidin-1-yl]propionamide]: 84%.
Still for that read-out and setting: the same measure for `CC(=O)OCCN(C(=O)CCN1CCN(Cc2cc(C)cc(C)c2)C1=C(C#N)C#N)c1cccc(CN2CCCCC2)c1` [Compound 6, N-(2-Acetoxyethyl)-N-[3-(piperidinomethyl)phenyl]-3-[3-(3,5-dimethylbenzyl)-2-dicyanomethylideneimidazolidin-1-yl]propionamide]: 93%; for `CCOC(=O)CN(C(=O)CCN1CCN(Cc2cc(C)cc(C)c2)C1=C(C#N)C#N)c1cccc(CN2CCCCC2)c1` [Compound 8, N-Ethoxycarbonylmethyl-N-[3-(piperidinomethyl)phenyl]-3-[3-(3,5-dimethylbenzyl)-2-dicyanomethylideneimidazolidin-1-yl]propionamide]: 95%; for `Cc1cc(C)cc(CN2CCN(CCC(=O)N(C)c3cccc(CN4CCCCC4)c3)C2=C(C#N)C#N)c1` [Compound 1, N-Methyl-N-[3-(piperidinomethyl)phenyl]-3-[3-(3,5-dimethylbenzyl)-2-dicyanomethylideneimidazolidin-1-yl]propionamide]: 92%.
Take `Cc1cc(C)cc(CN2CCN(CCC(=O)N(CCO)c3cccc(CN4CCCCC4)c3)C2=C(C#N)C#N)c1` [Compound 7, N-(2-Hydroxyethyl)-N-[3-(piperidinomethyl)phenyl]-3-[3-(3,5-dimethylbenzyl)-2-dicyanomethylideneimidazolidin-1-yl]propionamide]: the inhibition at 10 µM is 83%.
`Cc1cc(C)cc(CN2CCN(CCC(=O)N(c3cccc(CN4CCCCC4)c3)C3CCCCC3)C2=C(C#N)C#N)c1` [Compound 4, N-Cyclohexyl-N-[3-(piperidinomethyl)phenyl]-3-[3-(3,5-dimethylbenzyl)-2-dicyanomethylideneimidazolidin-1-yl]propionamide]: the inhibition at 10 µM was determined as 109%.

Still in this test, the particulars now being: test compound 10 μmol/L; 125I-labeled IP-10 binding to CXCR3.L1/2 transfectant cell membranes; results Table 6.
As for `Cc1cc(C)cc(CN2CCN(CCC(=O)N(c3cccc(CN4CCOCC4)c3)C(C)C)C2=C(C#N)C#N)c1` [Compound 22, N-Isopropyl-N-[3-(morpholinomethyl)phenyl]-3-[3-(3,5-dimethylbenzyl)-2-dicyanomethylideneimidazolidin-1-yl]propionamide], the inhibition at 10 µM was 93%.
Same read-out and setting: for `Cc1cc(C)cc(CN2CCN(CCC(=O)N(c3cccc(CN(CCO)CCO)c3)C(C)C)C2=C(C#N)C#N)c1` [Compound 26, N-Isopropyl-N-[3-(bis(2-hydroxyethyl)aminomethyl)phenyl]-3-[3-(3,5-dimethylbenzyl)-2-dicyanomethylideneimidazolidin-1-yl]propionamide] the value was 93%.
The same measure, in the same setting: for `CCCN(C(=O)CCN1CCN(Cc2cc(Cl)cc(Cl)c2)C1=C(C#N)C#N)c1cccc(CN2CCCCC2)c1C` [Compound 20, N-Propyl-N-[2-methyl-3-(piperidinomethyl)phenyl]-3-[3-(3,5-dichlorobenzyl)-2-dicyanomethylideneimidazolidin-1-yl]propionamide] the value was 68%.
Take `Cc1cccc(CN2CCN(CCC(=O)N(c3cccc(CN4CCCCC4)c3)C(C)C)C2=C(C#N)C#N)c1C` [Compound 14, N-Isopropyl-N-[3-(piperidinomethyl)phenyl]-3-[3-(2,3-dimethylbenzyl)-2-dicyanomethylideneimidazolidin-1-yl]propionamide]: the inhibition at 10 µM stood at 105%.
The term % inhibition denotes the relative decrease from the control value, in per cent. “N-Isopropyl-N-[3-(piperidinomethyl)phenyl]-3-[3-(1-naphthalenylmethyl)-2-dicyanomethylidene imidazolidin-1-yl]propionamide [Compound 16]”: the “% inhibition at 10 μmol/L” value was 95%.
On to `CCCN(C(=O)CCN1CCN(Cc2cc(Cl)cc(Cl)c2)C1=C(C#N)C#N)c1cc(CN2CCCCC2)ccc1Cl` [Compound 19, N-Propyl-N-[2-chloro-5-(piperidinomethyl)phenyl]-3-[3-(3,5-dichlorobenzyl)-2-dicyanomethylideneimidazolidin-1-yl]propionamide], for which the inhibition at 10 µM was 101%.
Still for that read-out and setting: the same measure for `Cc1cc(C)cc(CN2CCN(CCC(=O)N(c3cccc(CN(C)CCO)c3)C(C)C)C2=C(C#N)C#N)c1` [Compound 27, N-Isopropyl-N-[3-[(N-(2-hydroxyethyl)-N-methylamino)methyl]phenyl]-3-[3-(3,5-dimethylbenzyl)-2-dicyanomethylideneimidazolidin-1-yl]propionamide]: 92%; for `CCN(CC)Cc1cccc(N(C(=O)CCN2CCN(Cc3cc(C)cc(C)c3)C2=C(C#N)C#N)C(C)C)c1` [Compound 24, N-Isopropyl-N-[3-(diethylaminomethyl)phenyl]-3-[3-(3,5-dimethylbenzyl)-2-dicyanomethylideneimidazolidin-1-yl]propionamide]: 90%; for `CCCN(C(=O)CCN1CCN(Cc2cc(Cl)cc(Cl)c2)C1=C(C#N)C#N)c1cc(CN2CCCCC2)ccc1C` [Compound 18, N-Propyl-N-[2-methyl-5-(piperidinomethyl)phenyl]-3-[3-(3,5-dichlorobenzyl)-2-dicyanomethylideneimidazolidin-1-yl]propionamide]: 94%.
With `CCOC(=O)C1CCN(Cc2cccc(N(C(=O)CCN3CCN(Cc4cc(C)cc(C)c4)C3=C(C#N)C#N)C(C)C)c2)CC1` [Compound 25, N-Isopropyl-N-[3-(4-ethoxycarbonylpiperidinomethyl)phenyl]-3-[3-(3,5-dimethylbenzyl)-2-dicyanomethylideneimidazolidin-1-yl]propionamide], the inhibition at 10 µM is 107%.
Turning to `CC(C)N(C(=O)CCN1CCN(Cc2cc(Cl)cc(Cl)c2)C1=C(C#N)C#N)c1cccc(CN2CCCCC2)c1` [Compound 17, N-Isopropyl-N-[3-(piperidinomethyl)phenyl]-3-[3-(3,5-dichlorobenzyl)-2-dicyanomethylideneimidazolidin-1-yl]propionamide], the inhibition at 10 µM was determined as 93%.
